From US20230348376A1 (TEIJIN PHARMA LIMITED, priority 2020, published 2023)

Columns and labels:
[1] = Evaluation of brain penetration in mice (blood and brain concentration at brain Cmax); format: in vivo, mouse; conditions: 0.2 mg/kg single oral dose, C57BL/6J mice
How it was run: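 Male C57BL/6J mice (8 weeks, n=3) dosed orally once at 1 […] mg/kg; plasma and brain collected at 0.25, 0.5, 1, 2, 4 and 8 h. Compound extracted with acetonitrile from brain homogenate and plasma, quantified by LC/MS/MS.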

[2] = Evaluation of calcium increasing action in normal mice (serum calcium); format: in vivo, mouse; conditions: for Serum calcium concentration: repeated oral once a day, 2 weeks, C57BL/6J mice; for Calcium concentration Fluctuation range: vs vehicle 8.9 mg/dL
Protocol: After acclimatizing C57BL/6J mice (7 weeks old, male) for 1 week, the mice were divided into groups of 5 mice based on the body weight, and administration of the compound or vehicle was started. The administration solution used was a compound (in ethanol) or ethanol diluted 100-fold with 0.1% Trion X-100 (SIGMA #X100-100ML)/saline, and the repeated oral administration at once a day was performed. After administration of 2 weeks, euthanasia was performed by collecting all blood under general anesthesia.

[3] = system: oligodendrocyte progenitor cells derived from VDR knockout mice; assay: Oligodendrocyte progenitor cell differentiation using VDR knockout mice (MBP immunostaining); format: cell-based; conditions: 1000 nM, 4 days, VDR KO mouse OPC
Protocol: The promotive activity of oligodendrocyte progenitor cell (OPC) differentiation of the vitamin D derivatives was evaluated by using oligodendrocyte progenitor cells derived from VDR knockout mice. (1) Collection of Neural Stem Cells from VDR KO Mouse […]
The oligodendrocyte progenitor cells derived from VDR KO mouse prepared were suspended in oligodendrocyte progenitor cell differentiation medium (2% B27 (Thermo Fisher Scientific #17504-044)/1% penicillin-streptomycin (Invitrogen #15140-122)/10 ng/mL CNTF (PeproTech #AF-450-13)/DMEM/F-12, no glutamine (Gibco #21331-020)), and were seeded on a 96-well plate coated with poly-L-ornithine (FUJIFILM Wako Pure Chemical Corporation #163-27421) under the condition of 2.0×10^4 cells/well. […] Subsequently, images of each well were acquired using a fluorescence microscope (KEYENCE CORPORATION #BZ-X800), the number of MBP-positive cells and Hoechst 33342-positive cells (total cells) were measured using an image analysis application (KEYENCE CORPORATION #BZ-X800 Analyzer), and then the ratio of number of MBP-positive cells/number of Hoechst33342-positive cells (total cells) was calculated, and then the ratio of those to the DMSO group was calculated as a result. […]

[4] = system: rat oligodendrocyte progenitor cells; assay: Promotive activity of rat oligodendrocyte progenitor cell differentiation-2 (immunostaining of MBP); format: cell-based; conditions: Test 3; vitamin D derivative 2 μM, T3 30 nM; 4 days
How it was run: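 Rat OPCs prepared by shaking in separation medium about 22 h at 37 °C, 200 rpm, and collecting the supernatant.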

- Concentration in blood at brain Cmax ([1]; n=3): 0.0841 ± 0.0097 µM
- Concentration in brain at brain Cmax ([1]; n=3): 140.8 ± 17.6 pmol/g
- Kp ([1]; male, C57BL/6J, mouse, brain/plasma, po, 0.2 mg/kg, read-out: Concentration ratio in brain/in blood at brain Cmax): 1.67
- Serum calcium concentration ([2]; 20 μg/kg): 9.1 mg/dL
- Calcium concentration Fluctuation range ([2]; 20 μg/kg): 0.2 mg/dL
- Serum calcium concentration ([2]; 60 μg/kg): 9.1 mg/dL
- Calcium concentration Fluctuation range ([2]; 60 μg/kg): 0.2 mg/dL
- Serum calcium concentration ([2]; 200 μg/kg): 9.0 mg/dL
- Calcium concentration Fluctuation range ([2]; 200 μg/kg): 0.1 mg/dL
Compound: C[C@H](CN1CCOC[C@H]1C)[C@H]1CC[C@H]2/C(=C/C=C3C[C@@H](O)C[C@H](O)C3)CCC[C@]12C [Compound G005, (1R,3R)-5-(2-((1R,3aS,7aR,E)-7a-methyl-1-((S)-1-((R)-3-methylmorpholino)propan-2-yl)octahydro-4H-inden-4-ylidene)ethylidene)cyclohexane-1,3-diol]
- Mean (ratio MBP-positive cells/Hoechst33342-positive cells, relative to the DMSO group = 100.0) [3]: 215.1
- Mean (number of MBP-positive cells/number of Hoechst33342-positive cells) [4]: 0.34
